According to ChEMBL document CHEMBL1126496, “4-Aminomethyl chromans: dependence of serotonin and dopamine binding upon aromatic ring substitution” (Bioorg Med Chem Lett, 1993):

target: D(2) dopamine receptor (Rattus norvegicus, UniProt P61169); assay: Compound was tested for its binding affinity against Dopamine receptor D2 using [3H]raclopride radioligand
Sequence (P61169 whole entry): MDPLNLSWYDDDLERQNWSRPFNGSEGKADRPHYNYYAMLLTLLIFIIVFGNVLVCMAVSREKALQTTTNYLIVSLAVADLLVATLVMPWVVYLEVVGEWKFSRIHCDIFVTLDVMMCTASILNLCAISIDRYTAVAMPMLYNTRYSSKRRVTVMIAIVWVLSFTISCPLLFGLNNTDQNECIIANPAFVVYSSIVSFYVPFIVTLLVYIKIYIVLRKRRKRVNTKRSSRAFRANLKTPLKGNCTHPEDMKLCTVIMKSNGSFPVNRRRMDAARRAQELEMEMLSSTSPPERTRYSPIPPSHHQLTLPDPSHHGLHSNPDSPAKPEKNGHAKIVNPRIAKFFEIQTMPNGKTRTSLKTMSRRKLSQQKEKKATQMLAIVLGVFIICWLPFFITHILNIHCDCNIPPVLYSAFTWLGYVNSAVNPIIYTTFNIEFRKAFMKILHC

| Compound | Ki [nM] |
| --- | --- |
| COc1cccc2c1C(CN1CCC3(CC1)C(=O)NCN3c1ccccc1)CCO2 (stereo unspecified) | 29 |
| COc1ccc2c(c1)C(CN1CCC3(CC1)C(=O)NCN3c1ccccc1)CCO2 (stereo unspecified) | 164 |
| COc1ccc2c(c1)OCCC2CNCCCc1ccccc1 (stereo unspecified) | > 1000 |
| COc1ccc2c(c1)OCCC2CN1CCC2(CC1)C(=O)NCN2c1ccccc1 (stereo unspecified) | 274 |
| COc1cccc2c1OCCC2CNCCCc1ccccc1 (stereo unspecified) | 620 |
| COc1ccc2c(c1)C(CNCCCc1ccccc1)CCO2 (stereo unspecified) | > 1000 |
| COc1cccc2c1OCCC2CN1CCC2(CC1)C(=O)NCN2c1ccccc1 (stereo unspecified) | > 1000 |
| COc1cccc2c1C(CNCCCc1ccccc1)CCO2 (stereo unspecified) | 279 |

target: T1, 5-hydroxytryptamine receptor 1A (Homo sapiens, UniProt P08908); assay: Compound was tested for its binding affinity against 5-hydroxytryptamine 1A receptor using [3H]8-OH-DPAT radioligand
T1 sequence (P08908 whole entry): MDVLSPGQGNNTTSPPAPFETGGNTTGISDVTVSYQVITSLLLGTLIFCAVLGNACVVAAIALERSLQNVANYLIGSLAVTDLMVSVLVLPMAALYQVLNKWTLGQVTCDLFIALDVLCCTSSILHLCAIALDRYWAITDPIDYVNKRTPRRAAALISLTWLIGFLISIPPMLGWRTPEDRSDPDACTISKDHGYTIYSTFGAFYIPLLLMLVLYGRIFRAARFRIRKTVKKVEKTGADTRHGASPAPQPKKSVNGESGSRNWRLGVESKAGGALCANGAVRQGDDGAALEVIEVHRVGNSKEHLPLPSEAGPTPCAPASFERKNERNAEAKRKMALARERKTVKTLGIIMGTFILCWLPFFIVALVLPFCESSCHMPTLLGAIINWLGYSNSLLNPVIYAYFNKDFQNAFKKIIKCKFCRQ

| Compound | Ki [nM] |
| --- | --- |
| COc1cccc2c1C(CN1CCC3(CC1)C(=O)NCN3c1ccccc1)CCO2 (stereo unspecified) | 12 |
| COc1ccc2c(c1)C(CN1CCC3(CC1)C(=O)NCN3c1ccccc1)CCO2 (stereo unspecified) | 247 |
| COc1ccc2c(c1)OCCC2CNCCCc1ccccc1 (stereo unspecified) | 28 |
| COc1ccc2c(c1)OCCC2CN1CCC2(CC1)C(=O)NCN2c1ccccc1 (stereo unspecified) | 611 |
| COc1cccc2c1OCCC2CNCCCc1ccccc1 (stereo unspecified) | 7 |
| COc1ccc2c(c1)C(CNCCCc1ccccc1)CCO2 (stereo unspecified) | 93 |
| COc1cccc2c1OCCC2CN1CCC2(CC1)C(=O)NCN2c1ccccc1 (stereo unspecified) | > 1000 |
| COc1cccc2c1C(CNCCCc1ccccc1)CCO2 (stereo unspecified) | > 1000 |
